Source: patent US7914478B2, “Intrapelvic perfusion therapy with cancer therapeutic agent and apparatus for intrapelvic perfusion with cancer therapeutic agent” (priority 2002, dated 2011)

Set-up: species or system patients
Conditions: human, in vivo
Procedure: The intrapelvic perfusion therapy with cancer therapeutic agent of the present invention was carried out as explained below.
The perfusion was continued 30 minutes with keeping the difference between injection and aspiration flow rate was kept 20-25 [ml/min]. After performing this intrapelvic perfusion therapy, the blood of the intrapelvic circulation was dialyzed for 30 min.

Structure (SMILES): N.N.[Cl][Pt][Cl] [Cisplatin]
- percentage of drug leading from pelvic to systemic compartment during drug infusion: about 20%
